Laboratory results: PubChem BioAssay (NCI)
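Results reflect a 48-hour exposure of cells in 96-well plates to compound at five concentrations. GI50 is the concentration that inhibits growth by half. The concentration for full growth arrest is given as TGI.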

Experiments:
Test in all cases: inhibition of tumour cell growth, NCI panel, 48 h
[1] = test system: SN12C renal
[2] = test system: SK-MEL-2 melanoma
[3] = test system: OVCAR-3 ovarian
[4] = test system: DU-145 prostate
[5] = test system: MALME-3M melanoma
[6] = test system: OVCAR-5 ovarian
[7] = test system: HT29 colon
[8] = test system: 786-0 renal
[9] = test system: HL-60(TB) leukemia
[10] = test system: SF-268 CNS
[11] = test system: A549 NSCLC
[12] = test system: SNB-75 CNS
[13] = test system: COLO 205 colon
[14] = test system: SNB-19 CNS
[15] = test system: SF-539 CNS
[16] = test system: HCC-2998 colon
[17] = test system: CCRF-CEM leukemia
[18] = test system: U251 CNS
[19] = test system: HCT-116 colon
[20] = test system: EKVX NSCLC
[21] = test system: SK-MEL-28 melanoma
[22] = test system: NCI-H23 lung
[23] = test system: HCT-15 colon
[24] = test system: PC-3 prostate
[25] = test system: HS 578T breast
[26] = test system: SW-620 colon
[27] = test system: KM12 colon
[28] = test system: MDA-MB-435
[29] = test system: NCI-H522 lung
[30] = test system: RPMI-8226 leukemia
[31] = test system: HOP-62 NSCLC
[32] = test system: SK-OV-3 ovarian
[33] = test system: M14 melanoma
[34] = test system: ACHN renal
[35] = test system: SF-295 CNS
[36] = test system: UACC-257 melanoma
[37] = test system: NCI/ADR-RES ovarian
[38] = test system: OVCAR-4 ovarian
[39] = test system: LOX IMVI melanoma
[40] = test system: CAKI-1 renal
[41] = test system: NCI-H226 lung
[42] = test system: UACC-62 melanoma
[43] = test system: OVCAR-8 ovarian
[44] = test system: HOP-92 NSCLC
[45] = test system: SK-MEL-5 melanoma
[46] = test system: UO-31 renal
[47] = test system: IGROV1 ovarian
[48] = test system: BT-549 breast
[49] = test system: T-47D breast
[50] = test system: MDA-MB-231 breast
[51] = test system: SR leukemia
[52] = test system: TK-10 renal
[53] = test system: A498 renal
[54] = test system: NCI-H460 lung
[55] = test system: K-562 leukemia
[56] = test system: MCF7 breast
[57] = test system: MOLT-4 leukemia
[58] = test system: RXF 393 renal

Compound `CN1CCN(c2ccc(Nc3nc(NCCCNS(=O)(=O)c4ccc(Cl)cc4)c4sccc4n3)cc2)CC1` has a GI50 [1] of 12.9 µM, a TGI [1] of 25.5 µM and a GI50 [2] of 17.2 µM. It also gave a TGI [2] of 33.1 µM, a GI50 [3] of 6.81 µM and a TGI [3] of 35.9 µM. The GI50 [4] was 14 µM, the TGI [4] was 28.9 µM and the GI50 [5] was 2.12 µM. It also gave a TGI [5] of 3.91 µM, a GI50 [6] of 13.3 µM and a TGI [6] of 27.4 µM. It also gave a GI50 [7] of 3.75 µM, a TGI [7] of 19.4 µM and a GI50 [8] of 2.12 µM. It also gave a TGI [8] of 6.29 µM, a GI50 [9] of 2.12 µM and a TGI [9] of 5.11 µM. The GI50 [10] was 11.5 µM, the TGI [10] was 34.9 µM and the GI50 [11] was 18.7 µM. For the same compound, the TGI [11] was 61.7 µM, the GI50 [12] was 13.5 µM and the TGI [12] was 26.5 µM. It also gave a GI50 [13] of 15.6 µM, a TGI [13] of 37.8 µM and a GI50 [14] of 10.6 µM. For the same compound, the TGI [14] was 22.4 µM, the GI50 [15] was 1.82 µM and the TGI [15] was 3.55 µM. The GI50 [16] was 7.31 µM, the TGI [16] was 20 µM and the GI50 [17] was 4.22 µM. The TGI [17] was > 100 µM, the GI50 [18] was 4.06 µM and the TGI [18] was 23.2 µM. For the same compound, the GI50 [19] was 2.3 µM, the TGI [19] was 6.99 µM and the GI50 [20] was 14.1 µM. It also gave a TGI [20] of 30 µM, a GI50 [21] of 2.38 µM and a TGI [21] of 6.22 µM. It also gave a GI50 [22] of 14.1 µM, a TGI [22] of 29.1 µM and a GI50 [23] of 3.08 µM. The TGI [23] was 12.4 µM, the GI50 [24] was 9.62 µM and the TGI [24] was 26.4 µM. The GI50 [25] was 13.8 µM, the TGI [25] was 44.7 µM and the GI50 [26] was 5.2 µM. It also gave a TGI [26] of 18.6 µM, a GI50 [27] of 16.4 µM and a TGI [27] of 51.1 µM. The GI50 [28] was 9.17 µM, the TGI [28] was 21.2 µM and the GI50 [29] was 11.8 µM. It also gave a TGI [29] of 27 µM, a GI50 [30] of 3.04 µM and a TGI [30] of 9.67 µM. It also gave a GI50 [31] of 19.6 µM, a TGI [31] of 37 µM and a GI50 [32] of 29 µM. The TGI [32] was 60.9 µM, the GI50 [33] was 2 µM and the TGI [33] was 3.94 µM. It also gave a GI50 [34] of 11.2 µM, a TGI [34] of 23.2 µM and a GI50 [35] of 12.2 µM. For the same compound, the TGI [35] was 27 µM, the GI50 [36] was 2.39 µM and the TGI [36] was 6.44 µM. For the same compound, the GI50 [37] was 19.4 µM, the TGI [37] was 58.3 µM and the GI50 [38] was 12.2 µM. For the same compound, the TGI [38] was 25.1 µM, the GI50 [39] was 1.69 µM and the TGI [39] was 3.48 µM. The GI50 [40] was 15.5 µM, the TGI [40] was 28.8 µM and the GI50 [41] was 12 µM. The TGI [41] was 24.9 µM, the GI50 [42] was 3 µM and the TGI [42] was 11.1 µM. The GI50 [43] was 8.57 µM, the TGI [43] was 53.8 µM and the GI50 [44] was 2.16 µM. For the same compound, the TGI [44] was 16.2 µM, the GI50 [45] was 10.2 µM and the TGI [45] was 22 µM. It also gave a GI50 [46] of 13 µM, a TGI [46] of 25.7 µM and a GI50 [47] of 10.7 µM. For the same compound, the TGI [47] was 22.8 µM, the GI50 [48] was 3.12 µM and the TGI [48] was 14.4 µM. It also gave a GI50 [49] of 22.1 µM, a TGI [49] of 54.1 µM and a GI50 [50] of 4.94 µM. For the same compound, the TGI [50] was 17.3 µM, the GI50 [51] was 2.83 µM and the TGI [51] was > 100 µM. The GI50 [52] was 19.6 µM, the TGI [52] was 35.7 µM and the GI50 [53] was 20.4 µM. It also gave a TGI [53] of 34.8 µM, a GI50 [54] of 8.01 µM and a TGI [54] of 22 µM. The GI50 [55] was 2.95 µM, the TGI [55] was > 100 µM and the GI50 [56] was 6.47 µM. For the same compound, the TGI [56] was 21.1 µM, the GI50 [57] was 3.58 µM and the TGI [57] was 33.4 µM.
`COc1cc2c3c(n(CCCN4CCC[C@H]4C(N)=O)c(=O)c2cc1OC)-c1cc2c(cc1C3=O)OCO2` was tested, and the GI50 [1] was 0.0422 µM, the TGI [1] was > 52.4 µM and the GI50 [2] was > 100 µM. For the same compound, the TGI [2] was > 100 µM, the GI50 [3] was 0.161 µM and the TGI [3] was 3.66 µM. For the same compound, the GI50 [4] was 0.0382 µM, the TGI [4] was 12.6 µM and the GI50 [5] was 0.375 µM. The TGI [5] was > 57 µM, the GI50 [6] was 0.319 µM and the TGI [6] was 26.5 µM. The GI50 [7] was 0.0674 µM, the TGI [7] was 0.671 µM and the GI50 [8] was 0.0392 µM. It also gave a TGI [8] of 1.53 µM, a GI50 [9] of 0.0371 µM and a TGI [9] of 3.7 µM. For the same compound, the GI50 [10] was 0.0398 µM, the TGI [10] was > 100 µM and the GI50 [11] was 0.103 µM. The TGI [11] was > 57.3 µM, the GI50 [12] was 0.0301 µM and the TGI [12] was 1.2 µM. For the same compound, the GI50 [13] was 0.223 µM, the TGI [13] was > 100 µM and the GI50 [14] was 0.0405 µM. For the same compound, the TGI [14] was > 100 µM, the GI50 [15] was 0.0296 µM and the TGI [15] was 0.541 µM. For the same compound, the GI50 [16] was 0.224 µM, the TGI [16] was 13.8 µM and the GI50 [17] was < 0.0146 µM. It also gave a TGI [17] of 4.6 µM, a GI50 [18] of 0.0249 µM and a TGI [18] of 1.89 µM. For the same compound, the GI50 [19] was 0.0322 µM, the TGI [19] was 3.67 µM and the TGI [20] was > 100 µM. For the same compound, the GI50 [21] was 1.88 µM, the TGI [21] was > 100 µM and the GI50 [22] was 0.0448 µM. It also gave a TGI [22] of 2.32 µM, a GI50 [23] of 0.318 µM and a TGI [23] of 5.8 µM. The GI50 [24] was 0.329 µM, the TGI [24] was 22.6 µM and the GI50 [25] was > 100 µM. For the same compound, the TGI [25] was > 100 µM, the GI50 [26] was 0.0897 µM and the TGI [26] was > 48.2 µM. The GI50 [27] was 0.415 µM, the TGI [27] was 11.1 µM and the GI50 [28] was 0.148 µM. The TGI [28] was 14 µM, the GI50 [29] was 0.0236 µM and the TGI [29] was 4.48 µM. For the same compound, the GI50 [30] was 0.0829 µM, the TGI [30] was 2.36 µM and the GI50 [31] was 0.0293 µM. For the same compound, the TGI [31] was 12.7 µM, the GI50 [32] was 0.0396 µM and the TGI [32] was 1.26 µM. For the same compound, the GI50 [33] was 0.0358 µM, the TGI [33] was 2.46 µM and the GI50 [34] was 0.0274 µM. The TGI [34] was 3.86 µM, the GI50 [35] was 0.0179 µM and the TGI [35] was 15 µM. For the same compound, the GI50 [36] was 0.232 µM, the TGI [36] was > 100 µM and the GI50 [37] was 0.154 µM. For the same compound, the TGI [37] was > 100 µM, the GI50 [38] was 0.905 µM and the TGI [38] was 5.69 µM. The GI50 [39] was 0.0193 µM, the TGI [39] was 0.485 µM and the GI50 [40] was 0.0162 µM. For the same compound, the TGI [40] was 20.7 µM, the GI50 [41] was 0.0481 µM and the TGI [41] was 1.18 µM. The GI50 [42] was 0.0193 µM, the TGI [42] was 3.21 µM and the GI50 [43] was 0.0783 µM. The TGI [43] was 2.71 µM, the GI50 [44] was 0.808 µM and the TGI [44] was > 29.5 µM. The GI50 [45] was 0.0407 µM, the TGI [45] was 0.199 µM and the GI50 [46] was 0.0409 µM. For the same compound, the TGI [46] was > 41 µM, the GI50 [47] was 0.379 µM and the TGI [47] was 34.9 µM. It also gave a GI50 [48] of 0.0707 µM, a TGI [48] of 13.9 µM and a GI50 [49] of 0.0313 µM. It also gave a GI50 [50] of 1.16 µM, a TGI [50] of 16.2 µM and a TGI [51] of 0.54 µM. The GI50 [52] was > 42.3 µM, the TGI [52] was > 100 µM and the TGI [53] was > 100 µM. The GI50 [58] was 0.167 µM, the TGI [58] was 2.32 µM and the GI50 [54] was < 0.0152 µM. The GI50 [55] was 0.041 µM, the TGI [55] was 2.58 µM and the GI50 [56] was < 0.0107 µM. The TGI [56] was 1.42 µM, the GI50 [57] was < 0.0125 µM and the TGI [57] was 0.178 µM.
